Test results: paper PMC6368403, “Identification of a bilirubin receptor that may mediate a component of cholestatic itch” (eLife, 2019)
“And” between values parts separate entries of the source, which are not always exact repeats. Identical values can stand only once.

Legend:
MRGPRA1 [1] = target: T1, MRGPRA1 (Mus musculus, UniProt Q91WW5); assay: Ca2+ imaging and concentration-Ca2+ response (EC50) in HEK293 cells expressing MRGPRA1; assay type: cell-based; set-up: Ca2+ response: unit not given here; conditions: for Ca2+ response (concentration-response curve): MRGPRA1, triplicate wells (Fig 2D); for Ca2+ response: bilirubin, 3 replicate columns
T1 construct: expressed in transfected cells
T1 sequence (Q91WW5 1-304): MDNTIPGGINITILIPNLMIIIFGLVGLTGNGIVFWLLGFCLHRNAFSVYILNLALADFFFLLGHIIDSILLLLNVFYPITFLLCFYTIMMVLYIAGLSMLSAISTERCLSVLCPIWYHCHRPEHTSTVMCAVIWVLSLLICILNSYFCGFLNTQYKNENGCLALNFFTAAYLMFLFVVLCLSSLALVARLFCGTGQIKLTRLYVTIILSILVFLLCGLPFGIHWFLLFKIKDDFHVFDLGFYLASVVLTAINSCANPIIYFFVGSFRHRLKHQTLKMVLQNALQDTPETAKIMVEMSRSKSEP
Experimental: (§1) All cultured cells were maintained in DMEM supplemented with 10% FBS and 1% Penicillin/Streptomycin at 37°C, 5% CO2. All data included were generated from cells tested for mycoplasma and found to be negative. Cells were imaged in calcium imaging buffer (CIB; 10 mM HEPES, 1.2 mM NaHCO3, 130 mM NaCl, 3 mM KCl, 2.5 mM CaCl2, 0.6 mM MgCl2, 20 mM glucose, and 20 mM sucrose at pH 7.4 and 290–300 mOsm). To monitor changes in intracellular [Ca^2+] ([Ca^2+]i), cells were loaded with either Fura 2-AM (HEK293 cells) or Fluo 4-AM (DRG neurons and mast cells) for 30 min in the dark at 37°C in CIB just prior to imaging. With Fura 2-AM, emission at 510 nm was monitored from excitation at both 340 nm and 380 nm. With Fluo 4-AM, emission at 520 nm was monitored from excitation at 488 nm. Cells were identified as responding if the intracellular [Ca^2+] rose by either 50% compared to baseline or 50% compared to the [Ca^2+]i change assayed during addition of 50 mM KCl (neurons only). Damaged, detached, high-baseline, and motion-activated cells were excluded from analysis.
(§2) In initial screens, HEK293 cells stably expressing the murine G-protein alpha-subunit Gα15, a unique Gα protein that non-selectively couples a large variety of GPCRs to phospholipase C ^30, were plated on poly-D-lysine-coated coverslips and transiently transfected with constructs encoding the MRGRPR of interest. 12–24 hr later, cells were loaded with the Fura 2-AM. Unless otherwise specified, compounds were perfused into the imaging chamber for approximately thirty seconds after a baseline period was established. Response was then monitored at 5 s intervals for an additional 60 s.
(§3) HEK293 cells stably expressing either MRGPRA1, MRGPRX4, and MRGRPC11 were seeded in poly-D-lysine-coated 96-well plates at 10,000 cells/well. Cells were loaded with Fura 2–AM, washed twice, and maintained in CIB. Haem metabolites were freshly dissolved in DMSO in dim light and then diluted into a buffer comprised of 20 mM Tris and 150 mM NaCl at pH 8.8. Potential changes in pH were evaluated prior to each experiment. EC50 values were determined from dose-responses performed in triplicate, repeated 2–4 times. To determine potential antagonism by QWF against bilirubin, cells were treated with varying doses of QWF for 1 min in CIB prior to application of agonist.
(§4) HEK293 stable cell lines expressing GFP-tagged MRGPRA3, MRGPRC11, MRGPRD, MRGPRX1, and MRGPRX2 were generated in previously described reports ([Liu et al., 2009]; [Liu et al., 2012]; [McNeil et al., 2015]). Briefly, plasmids containing the receptor of interest were transfected into HEK cells using Lipofectamine 3000. After 3 days, cells were then selected using 0.5 mg/mL G418. After 3 weeks, monoclonal colonies were established and each the highest expressing clones were identified. For this study, Mrgpra1 and MRGPRX4 were inserted into pEGFP-N1 and transfected into HEK293 cells. MRGPR-positive cells were selected using 0.5 mg/mL G418 for three weeks, after which GFP-positive cells were sorted by FACS and monoclonally expanded. Two lines expressing similar levels of MRGPRA1 and MRGPRX4, as measured by GFP fluorescence, were selected for study.

MRGPRX4 = target: T2, MRGPRX4 (Homo sapiens, UniProt Q96LA9); assay: Ca2+ imaging and concentration-Ca2+ response (EC50) in HEK293 cells expressing MRGPRX4; assay type: cell-based; conditions: for Ca2+ response (concentration-response curve): MRGPRX4, triplicate wells (Fig 2I)
T2 construct: expressed in transfected cells
T2 sequence (Q96LA9 whole entry): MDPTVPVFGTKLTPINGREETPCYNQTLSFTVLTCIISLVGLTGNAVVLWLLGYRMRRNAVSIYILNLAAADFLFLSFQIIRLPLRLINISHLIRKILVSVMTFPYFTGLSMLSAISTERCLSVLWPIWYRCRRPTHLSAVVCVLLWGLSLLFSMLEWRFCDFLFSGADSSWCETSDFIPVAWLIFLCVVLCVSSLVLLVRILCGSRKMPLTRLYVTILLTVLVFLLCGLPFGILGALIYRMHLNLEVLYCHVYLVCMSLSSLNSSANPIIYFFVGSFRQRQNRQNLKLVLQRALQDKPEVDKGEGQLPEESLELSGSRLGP
Experimental: as §1, §2, §3, §4

MRGPRA1 [2] = target: T1, MRGPRA1; assay: Microscale thermophoresis binding to MRGPRA1; set-up: Transformed binding isotherm (mean of three experiments): unit not given here; conditions: MRGPRA1 (Fig 2E)
Experimental: Binding isotherms for MRGPRA1, MRGPRX4, and MRGRPC11 towards various ligands were determined by microscale thermophoresis with the NanoTemper monolith NT.115 instrument ([Duhr and Braun, 2006]). Ligands were pre-incubated with 10 µM of the GFP-tagged receptor of interest for 5 min at room temperature in binding buffer (20 mM Tris and 150 mM NaCl at pH 8.8). Receptors were crudely purified as a membrane fraction from cells stably expressing the receptor ([Vasavda et al., 2017]). Haem metabolites were freshly dissolved in 0.1 M NaOH in dim light and then diluted into assay buffer. Lyophilized BAM8-22 was dissolved in binding buffer. The pH of each ligand was evaluated prior to incubation with a receptor. Samples were loaded into NT.115 Hydrophobic-Treated Capillaries from NanoTemper. Microscale thermophoretic experiments were executed using 20% LED power and 15% MST power. KDs were calculated using the law of mass action with data from three independent experiments. Binding between bilirubin and receptors was evaluated purely thermophoretically, whereas binding between BAM8-22 and MRGPRC11 was evaluated by T-Jump. Samples with dramatic deviations in initial fluorescence were excluded.

C=CC1=C(C)/C(=C/c2[nH]c(Cc3[nH]c(/C=C4\NC(=O)C(C)=C4C=C)c(C)c3CCC(=O)O)c(CCC(=O)O)c2C)NC1=O [bilirubin, bilirubin IXα]
Calcium response / activation of MRGPRA1-expressing cells (MRGPRA1 [1]; 50 µM bilirubin, 30 µM FMRF): exhibited a calcium response
Ca2+ response (concentration-response curve) (MRGPRA1 [1]; [Ligand] 3.90625e-6 M): 1.244 (2×) and 1.27
Ca2+ response (concentration-response curve) (MRGPRA1 [1]; [Ligand] 7.8125e-6 M): 1.285 and 1.272 and 1.244
Ca2+ response (concentration-response curve) (MRGPRA1 [1]; [Ligand] 1.5625e-5 M): 1.239 (2×) and 1.229
Ca2+ response (concentration-response curve) (MRGPRA1 [1]; [Ligand] 3.125e-5 M): 1.214 and 1.216 and 1.186
Ca2+ response (concentration-response curve) (MRGPRA1 [1]; [Ligand] 6.25e-5 M): 1.236 and 1.293 and 1.259
Ca2+ response (concentration-response curve) (MRGPRA1 [1]; [Ligand] 0.000125 M): 1.409 and 1.368 and 1.342
Ca2+ response (concentration-response curve) (MRGPRA1 [1]; [Ligand] 0.00025 M): 1.512 and 1.513 and 1.452
Ca2+ response (concentration-response curve) (MRGPRA1 [1]; [Ligand] 0.0005 M): 1.582 and 1.563 and 1.522
Ca2+ response (MRGPRA1 [1]; [Ligand] (M) -3 (log scale)): 92.1113 and 105.486 and 102.402
Ca2+ response (MRGPRA1 [1]; [Ligand] (M) -3.30103 (log scale)): 69.422 and 70.1483 and 63.5847
Ca2+ response (MRGPRA1 [1]; [Ligand] (M) -3.60206 (log scale)): 71.8089 and 75.8019 and 75.1545
Ca2+ response (MRGPRA1 [1]; [Ligand] (M) -3.90309 (log scale)): 61.2591 and 54.8317 and 55.4389
Ca2+ response (MRGPRA1 [1]; [Ligand] (M) -4.20412 (log scale)): 49.8998 and 18.4414 and 32.057
Ca2+ response (MRGPRA1 [1]; [Ligand] (M) -4.50515 (log scale)): 6.418 and 7.051 and 1.245
Ca2+ response (MRGPRA1 [1]; [Ligand] (M) -4.80618 (log scale)): 27.9538 and 0 (2×)
Ca2+ response (MRGPRA1 [1]; [Ligand] (M) -5.10721 (log scale)): 34.8054 and 0 (2×)
Calcium response / activation of MRGPRX4-expressing cells (MRGPRX4): only MRGPRX4-expressing cells responded
Ca2+ response (concentration-response curve) (MRGPRX4; [Ligand] 1.95313e-6 M): 0.6657 and 0.5292 and 0.882
Ca2+ response (concentration-response curve) (MRGPRX4; [Ligand] 3.90625e-6 M): 0.5596 and 0.9735 and 0.9102
Ca2+ response (concentration-response curve) (MRGPRX4; [Ligand] 7.8125e-6 M): 0.7828 and 0.7465 and 0.8173
Ca2+ response (concentration-response curve) (MRGPRX4; [Ligand] 1.5625e-5 M): 0.5886 and 0.7131 and 0.5739
Ca2+ response (concentration-response curve) (MRGPRX4; [Ligand] 3.125e-5 M): 0.9259 and 0.9222 and 0.8162
Ca2+ response (concentration-response curve) (MRGPRX4; [Ligand] 6.25e-5 M): 1.178 and 1.234 and 1.122
Ca2+ response (concentration-response curve) (MRGPRX4; [Ligand] 0.000125 M): 1.451 and 1.464 and 1.382
Ca2+ response (concentration-response curve) (MRGPRX4; [Ligand] 0.00025 M): 1.643 and 1.595 and 1.524
Transformed binding isotherm (mean of three experiments) (MRGPRA1 [2]; [Ligand] 3.05e-8 M): 6.015
Transformed binding isotherm (mean of three experiments) (MRGPRA1 [2]; [Ligand] 6.1e-8 M): 5.1124
Transformed binding isotherm (mean of three experiments) (MRGPRA1 [2]; [Ligand] 1.221e-7 M): 3.41
Transformed binding isotherm (mean of three experiments) (MRGPRA1 [2]; [Ligand] 2.441e-7 M): 3.271
Transformed binding isotherm (mean of three experiments) (MRGPRA1 [2]; [Ligand] 4.883e-7 M): -3.226
Transformed binding isotherm (mean of three experiments) (MRGPRA1 [2]; [Ligand] 9.766e-7 M): -3.391
Transformed binding isotherm (mean of three experiments) (MRGPRA1 [2]; [Ligand] 1.9531e-6 M): 7.109
Transformed binding isotherm (mean of three experiments) (MRGPRA1 [2]; [Ligand] 7.8125e-6 M): 1.334
Transformed binding isotherm (mean of three experiments) (MRGPRA1 [2]; [Ligand] 1.5625e-5 M): 2.3419
Transformed binding isotherm (mean of three experiments) (MRGPRA1 [2]; [Ligand] 3.125e-5 M): 16.9295
Transformed binding isotherm (mean of three experiments) (MRGPRA1 [2]; [Ligand] 6.25e-5 M): 43.5974
Transformed binding isotherm (mean of three experiments) (MRGPRA1 [2]; [Ligand] 0.000125 M): 64.6366
Transformed binding isotherm (mean of three experiments) (MRGPRA1 [2]; [Ligand] 0.00025 M): 80.7081
Transformed binding isotherm (mean of three experiments) (MRGPRA1 [2]; [Ligand] 0.0005 M): 102.789
Transformed binding isotherm (mean of three experiments) (MRGPRA1 [2]; [Ligand] 0.001 M): 103.048
